Assay results: paper PMC10364322, “Evaluation of chronic drug-induced electrophysiological and cytotoxic effects using human-induced pluripotent stem cell-derived cardiomyocytes (hiPSC-CMs)” (Frontiers in Pharmacology, 2023)
Read-outs that look alike come from different tables or passages of the source.

Key:
[1] = free therapeutic Cmax in humans; ref FDA-approved drug packages, PharmaPendium; cited from earlier work
[2] = system: hiPSC-CMs (iCell-Cardiomyocytes^2); assay: MEA impedance (cytotoxicity readout) in hiPSC-CMs
Description: (§1) Cells were seeded according to the instructions of the cell provider, in fibronectin-coated 48-well MEA plates (Axion Cytoview Plates, M768-tMEA-48B) at a density suited to form a monolayer (i.e., 50 K/well) and maintained in culture in a stage incubator (37°C, 5% CO2).
(§2) At least 4 h before the beginning of the baseline measurements, a full medium exchange was performed (to a final volume of 400 µL per well). Neat compounds were dissolved in 100% DMSO at a stock concentration 1000-fold the highest target concentration. […] Afterwards, these stock solutions were diluted with Maintenance medium (CDi), to 10-fold the intended concentration. The final DMSO concentration in test solutions and vehicle control was 0.1%.
(§3) Spontaneous electrical activity was recorded in hiPSC-CMs monolayers as field potentials using the Maestro Pro MEA instrument (Axion Biosystems, Atlanta, GA, United States), which allows the maintenance of accurate temperature and CO2 levels (37°C, 5% CO2). After the plate was placed in the Maestro Pro and allowed to equilibrate for about 10 min, baseline acquisition of field potential and impedance signals was initiated and lasted for 5 min each. […] As impedance measures resistance of an applied alternating current through the hiPSC-CMs monolayer, a reduction in the attachment of hiPSC-CMs to the bottom of the well due to cell death or changes in the monolayer morphology, causes a drop in the impedance signal.
(§4) After the acquisition of all timepoint measurements, raw data were loaded into the data analysis software Axion Cardiac Analysis Tool (V.3.2.3). […] A.csv file containing information on the FP parameters per well, per time point, was then generated and used as input to the in-house data management system (SPEcII v.3.4, Unlimit-IT, Geel, Belgium), where descriptive statistics were calculated. Summary values at different time points after compound addition are expressed as percent change from baseline and shown as mean ± standard deviation (SD).
(§5) The nonparametric Wilcoxon-Mann Whitney Test was used to compare the percent change from the baseline (Δ%) value between the group treated with the compound at a given concentration and the group treated with the DMSO at each matching time points. A two-sided test at 5% significance level was considered. […] To assess the physiological relevance of changes, a tolerance interval of DMSO experiments was calculated at each time point, for each parameter. […] TIs indicate an interval where, with a certain confidence level (1- α = 0.95), a specified proportion (p = 0.80) of percent change for DMSO data falls. The lower and upper limits based on the TI values were used as cut-offs for the interpretation of the changes. For the cytotoxicity assays, measurements of fluorescence (after background fluorescence subtraction) from wells treated with the compounds were normalized by the average value of vehicle experiments (DMSO 0.1%) to obtain a DMSO-corrected, delta/delta percent change. Experiments from each condition, as delta/delta percent, were averaged and expressed as mean ± SD. Statistical analysis was performed using a non-parametric test (Kruskal-Wallis) and each treatment condition was compared to the relative DMSO 0.1%. Differences were considered statistically significant when the p-value was smaller than 0.05.

[3] = system: hiPSC-CMs (iCell-Cardiomyocytes^2)
Description: as §1, §2, §3
The potential presence of various arrhythmic events was evaluated and noted during the data analysis.
as §4, §5

SMILES: COc1cc2c(Nc3ccc(Br)cc3F)ncnc2cc1OCC1CCN(C)CC1 [Vandetanib]
- Free Cmax [1]: 400 nM
- Imp (impedance), % change from baseline ([2]; 0.1 µM, 2h): -3±2%
- Imp (impedance), % change from baseline ([2]; 0.1 µM, 24h): -9±2%
- Imp (impedance), % change from baseline ([2]; 0.1 µM, 48h): -7±2%
- Imp (impedance), % change from baseline ([2]; 0.1 µM, 72h): -9±3%
- Imp (impedance), % change from baseline ([2]; 0.1 µM, 96h): -6±3%
- Imp (impedance), % change from baseline ([2]; 0.3 µM, 2h): -2±1%
- Imp (impedance), % change from baseline ([2]; 0.3 µM, 24h): -9±4%
- Imp (impedance), % change from baseline ([2]; 0.3 µM, 48h): -3±3%
- Imp (impedance), % change from baseline ([2]; 0.3 µM, 72h): -5±4%
- Imp (impedance), % change from baseline ([2]; 0.3 µM, 96h): -6±5%
- Imp (impedance), % change from baseline ([2]; 1 µM, 2h): -3±2%
- Imp (impedance), % change from baseline ([2]; 1 µM, 24h): -11±3%
- Imp (impedance), % change from baseline ([2]; 1 µM, 48h): -13±4%
- Imp (impedance), % change from baseline ([2]; 1 µM, 72h): -20±4 %
- Imp (impedance), % change from baseline ([2]; 1 µM, 96h): -20±5%
- Imp (impedance), % change from baseline ([2]; 3 µM, 72h): -44±7 %
- Imp (impedance), % change from baseline ([2]; 3 µM, 96h): -53±5 %
- Imp (impedance), % change from baseline ([2]; 3 µM, 2h): 2±4%
- Imp (impedance), % change from baseline ([2]; 3 µM, 24h): -16±3%
- Imp (impedance), % change from baseline ([2]; 3 µM, 48h): -30±5 %
- BR (beating rate), % change from baseline ([3]; 0.1 µM, 2h): 0±4%
- Beating below threshold, number of observations/total well numbers ([3]; 0.1 µM, 2h): 0/5
- Cessation of beating, number of observations/total well numbers ([3]; 0.1 µM, 2h): 0/5
- EAD, number of observations/total well numbers ([3]; 0.1 µM, 2h): 0/5
- FPDc (field-potential duration corrected by beat-rate), % change from baseline ([3]; 0.1 µM, 2h): 15.3±2.3 %
- Flat T-wave-like, number of observations/total well numbers ([3]; 0.1 µM, 2h): 0/5
- BR (beating rate), % change from baseline ([3]; 0.1 µM, 24h): -9±5%
- Beating below threshold, number of observations/total well numbers ([3]; 0.1 µM, 24h): 0/5
- Cessation of beating, number of observations/total well numbers ([3]; 0.1 µM, 24h): 0/5
- EAD, number of observations/total well numbers ([3]; 0.1 µM, 24h): 0/5
- FPDc (field-potential duration corrected by beat-rate), % change from baseline ([3]; 0.1 µM, 24h): 44.1±5.9 %
- Flat T-wave-like, number of observations/total well numbers ([3]; 0.1 µM, 24h): 0/5
- BR (beating rate), % change from baseline ([3]; 0.1 µM, 48h): -14±2 %
- Beating below threshold, number of observations/total well numbers ([3]; 0.1 µM, 48h): 0/5
- Cessation of beating, number of observations/total well numbers ([3]; 0.1 µM, 48h): 0/5
- EAD, number of observations/total well numbers ([3]; 0.1 µM, 48h): 0/5
- FPDc (field-potential duration corrected by beat-rate), % change from baseline ([3]; 0.1 µM, 48h): 40.3±1.1 %
- Flat T-wave-like, number of observations/total well numbers ([3]; 0.1 µM, 48h): 0/5
- BR (beating rate), % change from baseline ([3]; 0.1 µM, 72h): -17±2 %
- Beating below threshold, number of observations/total well numbers ([3]; 0.1 µM, 72h): 0/5
- Cessation of beating, number of observations/total well numbers ([3]; 0.1 µM, 72h): 0/5
- EAD, number of observations/total well numbers ([3]; 0.1 µM, 72h): 0/5
- FPDc (field-potential duration corrected by beat-rate), % change from baseline ([3]; 0.1 µM, 72h): 52.6±4.9 %
- Flat T-wave-like, number of observations/total well numbers ([3]; 0.1 µM, 72h): 0/5
- BR (beating rate), % change from baseline ([3]; 0.1 µM, 96h): -19±3%
- Beating below threshold, number of observations/total well numbers ([3]; 0.1 µM, 96h): 0/5
- Cessation of beating, number of observations/total well numbers ([3]; 0.1 µM, 96h): 0/5
- EAD, number of observations/total well numbers ([3]; 0.1 µM, 96h): 0/5
- FPDc (field-potential duration corrected by beat-rate), % change from baseline ([3]; 0.1 µM, 96h): 57.6±5.7 %
- Flat T-wave-like, number of observations/total well numbers ([3]; 0.1 µM, 96h): 0/5
- BR (beating rate), % change from baseline ([3]; 0.3 µM, 2h): -5±4%
- Beating below threshold, number of observations/total well numbers ([3]; 0.3 µM, 2h): 0/5
- Cessation of beating, number of observations/total well numbers ([3]; 0.3 µM, 2h): 0/5
- EAD, number of observations/total well numbers ([3]; 0.3 µM, 2h): 0/5
- FPDc (field-potential duration corrected by beat-rate), % change from baseline ([3]; 0.3 µM, 2h): 28.5±9.1 %
- Flat T-wave-like, number of observations/total well numbers ([3]; 0.3 µM, 2h): 0/5
- BR (beating rate), % change from baseline ([3]; 0.3 µM, 24h): -29±5 %
- Beating below threshold, number of observations/total well numbers ([3]; 0.3 µM, 24h): 0/5
- Cessation of beating, number of observations/total well numbers ([3]; 0.3 µM, 24h): 0/5
- EAD, number of observations/total well numbers ([3]; 0.3 µM, 24h): 1/5
- FPDc (field-potential duration corrected by beat-rate), % change from baseline ([3]; 0.3 µM, 24h): 112±14.9 %
- Flat T-wave-like, number of observations/total well numbers ([3]; 0.3 µM, 24h): 1/5
- BR (beating rate), % change from baseline ([3]; 0.3 µM, 48h): -31±2 %
- Beating below threshold, number of observations/total well numbers ([3]; 0.3 µM, 48h): 0/5
